Measured values from PubChem BioAssay AID328 (DTP/NCI, 2004).
Where “and” joins values, the source holds several entries; their conditions need not be identical. Equal entries are not always repeated. Inconclusive results and toxic doses are left out.

Test system: BDF1 mice, P388 leukemia ip, median survival T/C
Assay: NCI In Vivo Anticancer Drug Screen. Data for tumor model P388 Leukemia (intraperitoneal) in B6D2F1 (BDF1) mice
Conditions: endpoint: median survival time, higher = longer survival
Summary of the method: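 Steps: implant the tumour, treat one group with compound and another with vehicle, record survival, then divide treated by control.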

[1] = dose: 100.0 mg/kg/injection, schedule: Q01DX009 (ip), vehicle: saline with Tween-80
[2] = dose: 200.0 mg/kg/injection, schedule: Q01DX009 (ip), vehicle: saline with Tween-80
[3] = dose: 400.0 mg/kg/injection, schedule: Q01DX009 (ip), vehicle: saline with Tween-80
[4] = dose: 25.0 mg/kg/injection, schedule: Q04DX003 (ip), vehicle: Klucel (hydroxypropylcellulose) (HPC)
[5] = dose: 50.0 mg/kg/injection, schedule: Q04DX003 (ip), vehicle: Klucel (hydroxypropylcellulose) (HPC)
[6] = dose: 50.0 mg/kg/injection, schedule: Q01DX009 (ip), vehicle: saline with Tween-80
[7] = dose: 100.0 mg/kg/injection, schedule: Q04DX003 (ip), vehicle: saline with Tween-80
[8] = dose: 200.0 mg/kg/injection, schedule: Q04DX003 (ip), vehicle: saline with Tween-80
[9] = dose: 400.0 mg/kg/injection, schedule: Q04DX003 (ip), vehicle: saline with Tween-80
[10] = dose: 50.0 mg/kg/injection, schedule: Q04DX003 (ip), vehicle: saline with Tween-80
[11] = dose: 200.0 mg/kg/injection, schedule: Q04DX003 (ip), vehicle: saline
[12] = dose: 400.0 mg/kg/injection, schedule: Q04DX003 (ip), vehicle: saline
[13] = dose: 100.0 mg/kg/injection, schedule: Q01DX001 (ip), vehicle: saline

`COc1cc(-c2ccc(NC(=O)NC3CC3)c(OC)c2)ccc1NC(=O)NC1CC1` was tested, and the T/C (dose: 50.0 mg/kg/injection, schedule: Q01DX005 (ip), vehicle: saline with Tween-80) was 89 % of control and the T/C (dose: 100.0 mg/kg/injection, schedule: Q01DX005 (ip), vehicle: saline with Tween-80) was 91 % of control.

In the case of `O=c1c2ccccc2[nH]c2ccc(Cl)cc12`, the T/C [1] was 97 % of control, the T/C [2] was 98 % of control and the T/C [3] was 89 % of control.

`NNC(=O)OC12CC3CC(CC(C3)C1)C2` was tested, and the T/C (dose: 12.5 mg/kg/injection, schedule: Q04DX003 (ip), vehicle: Klucel (hydroxypropylcellulose) (HPC)) was 105 % of control, the T/C [4] was 105 % of control and the T/C [5] was 120 % of control. For the same molecule, the T/C (dose: 63.75 mg/kg/injection, schedule: Q01DX001 (ip), vehicle: Klucel (hydroxypropylcellulose) (HPC)) was 100 % of control, the T/C (dose: 127.5 mg/kg/injection, schedule: Q01DX001 (ip), vehicle: Klucel (hydroxypropylcellulose) (HPC)) was 122 % of control and the T/C (dose: 255.0 mg/kg/injection, schedule: Q04DX003 (ip), vehicle: Klucel (hydroxypropylcellulose) (HPC)) was 90 % of control.

In the case of `COc1ccc(/C=C2\SC(=S)N(CCCN3CCOCC3)C2=O)c(OC)c1`, the T/C [6] was 97 % of control, the T/C [1] was 92 % of control and the T/C [2] was 95 % of control.

With `O=CC(OC(=O)c1ccccc1)C(OC(=O)c1ccccc1)C(COC(c1ccccc1)(c1ccccc1)c1ccccc1)OC(=O)c1ccccc1` (stereo not given) the T/C (dose: 25.0 mg/kg/injection, schedule: Q01DX009 (ip), vehicle: saline with Tween-80) was 110 % of control, the T/C [6] was 110 % of control and the T/C [1] was 120 % of control. For the same molecule, the T/C [2] was 100 % of control and 108 % of control.

In the case of `CCCCCCOP(=O)(CCCCCC)OCCCCCC`, the T/C (dose: 25.0 mg/kg/injection, schedule: Q01DX009 (ip), vehicle: Klucel (hydroxypropylcellulose) (HPC)) was 108 % of control, the T/C [4] was 100 % of control and the T/C (dose: 50.0 mg/kg/injection, schedule: Q01DX009 (ip), vehicle: Klucel (hydroxypropylcellulose) (HPC)) was 104 % of control. The T/C [5] was 95 % of control, the T/C (dose: 100.0 mg/kg/injection, schedule: Q01DX009 (ip), vehicle: Klucel (hydroxypropylcellulose) (HPC)) was 113 % of control and the T/C (dose: 100.0 mg/kg/injection, schedule: Q04DX003 (ip), vehicle: Klucel (hydroxypropylcellulose) (HPC)) was 100 % of control.

In the case of `CCCc1c(N)c2ccccc2c2ccccc12`, the T/C (dose: 100.0 mg/kg/injection, schedule: Q04DX002 (ip), vehicle: saline with Tween-80) was 86 % of control, the T/C (dose: 200.0 mg/kg/injection, schedule: Q04DX002 (ip), vehicle: saline with Tween-80) was 96 % of control and the T/C (dose: 400.0 mg/kg/injection, schedule: Q04DX002 (ip), vehicle: saline with Tween-80) was 102 % of control.

For `CN1C(=O)Cc2[nH]ccc2C1=O`, the T/C (dose: 3.13 mg/kg/injection, schedule: Q04DX003 (ip), vehicle: saline with Tween-80) was 106 % of control, the T/C (dose: 6.25 mg/kg/injection, schedule: Q04DX003 (ip), vehicle: saline with Tween-80) was 109 % of control and the T/C (dose: 12.5 mg/kg/injection, schedule: Q04DX003 (ip), vehicle: saline with Tween-80) was 119 % of control and 120 % of control. The T/C (dose: 25.0 mg/kg/injection, schedule: Q04DX003 (ip), vehicle: saline with Tween-80) was 118 % of control.

`Cc1ccc(C)c(CCCC(=O)O)c1` was tested, and the T/C [1] was 95 % of control, the T/C [7] was 100 % of control and the T/C [2] was 109 % of control. For the same molecule, the T/C [8] was 104 % of control and the T/C [9] was 108 % of control.

In the case of `COc1cccc2c1C(=O)c1c(O)c3c(c(O)c1C2=O)C[C@@](O)(C(=O)COC(=O)Cc1ccccc1)C[C@@H]3OC1CC(N)C(O)C(C)O1` (stereo not given in full), the T/C (dose: 1.3 mg/kg/injection, schedule: Q01DX009 (ip), vehicle: saline) was 162 % of control and the T/C (dose: 2.0 mg/kg/injection, schedule: Q01DX009 (ip), vehicle: saline) was 200 % of control.

In the case of `COc1ccc(/C=C/C(=O)c2ccc(OCc3ccccc3)c(OC)c2)cc1OC`, the T/C [10] was 105 % of control, the T/C [7] was 99 % of control and the T/C [8] was 87 % of control. For the same molecule, the T/C [9] was 87 % of control.

With `CN(C)c1nn2c(-c3ccccc3)nnc2o1` the T/C [11] was 105 % of control and the T/C [12] was 120 % of control.

In the case of `O=C(NC1CCCCC1)O/N=C/c1ccccn1`, the T/C (dose: 100.0 mg/kg/injection, schedule: Q01DX001 (ip), vehicle: other) was 87 % of control and the T/C (dose: 400.0 mg/kg/injection, schedule: Q01DX001 (ip), vehicle: other) was 91 % of control.

In the case of `O=c1cc(O)ccn1CC(O)c1ccc(Cl)s1` (stereo not given), the T/C [1] was 101 % of control and 111 % of control, the T/C [7] was 109 % of control and the T/C [2] was 92 % of control and 104 % of control. The T/C [8] was 110 % of control, the T/C [3] was 108 % of control and 113 % of control and the T/C [9] was 119 % of control.

With `CC(=O)C1CC2c3ccccc3C1c1ccccc12` (stereo not given) the T/C [1] was 95 % of control and the T/C [2] was 87 % of control.

With `N#Cc1cnc2nc1NCCCCCCC2` the T/C [7] was 86 % of control.

With `CCc1ccc(C(=O)N/N=C(\C)[C@]2(O)Cc3c(O)c4c(c(O)c3[C@@H](OC3CC(N)C(O)C(C)O3)C2)C(=O)c2c(OC)cccc2C4=O)cc1` (stereo not given in full) the T/C (dose: 1.56 mg/kg/injection, schedule: Q01DX009 (ip), vehicle: water) was 117 % of control, the T/C (dose: 3.12 mg/kg/injection, schedule: Q01DX009 (ip), vehicle: water) was 161 % of control and the T/C (dose: 6.25 mg/kg/injection, schedule: Q01DX009 (ip), vehicle: water) was 152 % of control and 166 % of control. The T/C (dose: 12.5 mg/kg/injection, schedule: Q01DX009 (ip), vehicle: water) was 95 % of control and 122 % of control.

In the case of `OC(c1ccccc1)(C1CCNCC1)C1CC1` (stereo not given), the T/C (dose: 25.0 mg/kg/injection, schedule: Q01DX001 (ip), vehicle: saline) was 107 % of control, the T/C (dose: 50.0 mg/kg/injection, schedule: Q01DX001 (ip), vehicle: saline) was 107 % of control and the T/C [13] was 118 % of control.

In the case of `CC(O)(c1ccc(Br)cc1)C(c1ccccc1)c1ccccn1` (stereo not given), the T/C (dose: 25.0 mg/kg/injection, schedule: Q01DX009 (ip), vehicle: saline) was 104 % of control, the T/C (dose: 50.0 mg/kg/injection, schedule: Q01DX009 (ip), vehicle: saline) was 100 % of control and the T/C (dose: 100.0 mg/kg/injection, schedule: Q01DX009 (ip), vehicle: saline) was 86 % of control. For the same molecule, the T/C (dose: 100.0 mg/kg/injection, schedule: Q04DX003 (ip), vehicle: saline) was 111 % of control, the T/C (dose: 200.0 mg/kg/injection, schedule: Q01DX009 (ip), vehicle: saline) was 111 % of control and the T/C [11] was 104 % of control. The T/C (dose: 400.0 mg/kg/injection, schedule: Q01DX009 (ip), vehicle: saline) was 101 % of control and the T/C [12] was 109 % of control.

`CC(=O)OCCC(CCOC(C)=O)=C1N=C(c2ccccc2)OC1=O` was tested, and the T/C [1] was 120 % of control, the T/C (dose: 300.0 mg/kg/injection, schedule: Q01DX009 (ip), vehicle: saline with Tween-80) was 118 % of control and the T/C [3] was 116 % of control.

For `CCCCCCN(CCCCCC)P(=O)(N1CC1)N1CC1`, the T/C (dose: 14.0 mg/kg/injection, schedule: Q04DX003 (ip), vehicle: saline) was 95 % of control, the T/C (dose: 21.0 mg/kg/injection, schedule: Q04DX003 (ip), vehicle: saline) was 104 % of control and the T/C (dose: 33.0 mg/kg/injection, schedule: Q04DX003 (ip), vehicle: saline with Tween-80) was 100 % of control and 118 % of control. The T/C [10] was 150 % of control and the T/C (dose: 75.0 mg/kg/injection, schedule: Q04DX003 (ip), vehicle: saline with Tween-80) was 181 % of control.

For `CCOC(=O)c1ccccc1OP(=O)(N(C)C)N(C)C`, the T/C [6] was 106 % of control and the T/C [2] was 122 % of control.

In the case of `O=S(=O)(O)c1ccncc1`, the T/C [13] was 116 % of control, the T/C (dose: 200.0 mg/kg/injection, schedule: Q01DX001 (ip), vehicle: saline) was 104 % of control and the T/C (dose: 400.0 mg/kg/injection, schedule: Q01DX001 (ip), vehicle: saline) was 87 % of control.

For `CCOC1c2cnc(C)n2C=CN1C(C)=O` (stereo not given), the T/C (dose: 50.0 mg/kg/injection, schedule: Q04DX003 (ip), vehicle: water) was 109 % of control, the T/C (dose: 100.0 mg/kg/injection, schedule: Q04DX003 (ip), vehicle: water) was 100 % of control and 104 % of control and the T/C (dose: 200.0 mg/kg/injection, schedule: Q04DX003 (ip), vehicle: water) was 101 % of control and 111 % of control. The T/C (dose: 300.0 mg/kg/injection, schedule: Q04DX003 (ip), vehicle: water) was 110 % of control and the T/C (dose: 400.0 mg/kg/injection, schedule: Q04DX003 (ip), vehicle: water) was 118 % of control.

For `NC(=S)N1N=C(c2cccc([N+](=O)[O-])c2)CCC1=O`, the T/C [7] was 100 % of control and the T/C [9] was 100 % of control.
